Reference: the kinase profiling compilation of Christmann-Franck et al. (2016)

Experiments:
Test in all cases: KINOMEscan competition binding
Conditions in all cases: compound 10.0 µM
[1] = test system: ABL1 (human), P00519 [Y253F]
[2] = test system: RET (human), P07949 [V804M]
[3] = test system: EGFR (human), P00533 [747-751 del / S ins]
[4] = test system: KIT (human), P10721 [V559D/V654A]
[5] = test system: RET (human), P07949 [M918T]
[6] = test system: EGFR (human), P00533 [752-759 del]
[7] = test system: MET (human), P08581 [Y1235D]
[8] = test system: EGFR (human), P00533 [T790M/L858R]
[9] = test system: FLT3 (human), P36888 [D835H]
[10] = test system: KIT (human), P10721 [L576P]
Sequence of KIT (human), P10721 [L576P] (P10721 whole entry L576P, looked up): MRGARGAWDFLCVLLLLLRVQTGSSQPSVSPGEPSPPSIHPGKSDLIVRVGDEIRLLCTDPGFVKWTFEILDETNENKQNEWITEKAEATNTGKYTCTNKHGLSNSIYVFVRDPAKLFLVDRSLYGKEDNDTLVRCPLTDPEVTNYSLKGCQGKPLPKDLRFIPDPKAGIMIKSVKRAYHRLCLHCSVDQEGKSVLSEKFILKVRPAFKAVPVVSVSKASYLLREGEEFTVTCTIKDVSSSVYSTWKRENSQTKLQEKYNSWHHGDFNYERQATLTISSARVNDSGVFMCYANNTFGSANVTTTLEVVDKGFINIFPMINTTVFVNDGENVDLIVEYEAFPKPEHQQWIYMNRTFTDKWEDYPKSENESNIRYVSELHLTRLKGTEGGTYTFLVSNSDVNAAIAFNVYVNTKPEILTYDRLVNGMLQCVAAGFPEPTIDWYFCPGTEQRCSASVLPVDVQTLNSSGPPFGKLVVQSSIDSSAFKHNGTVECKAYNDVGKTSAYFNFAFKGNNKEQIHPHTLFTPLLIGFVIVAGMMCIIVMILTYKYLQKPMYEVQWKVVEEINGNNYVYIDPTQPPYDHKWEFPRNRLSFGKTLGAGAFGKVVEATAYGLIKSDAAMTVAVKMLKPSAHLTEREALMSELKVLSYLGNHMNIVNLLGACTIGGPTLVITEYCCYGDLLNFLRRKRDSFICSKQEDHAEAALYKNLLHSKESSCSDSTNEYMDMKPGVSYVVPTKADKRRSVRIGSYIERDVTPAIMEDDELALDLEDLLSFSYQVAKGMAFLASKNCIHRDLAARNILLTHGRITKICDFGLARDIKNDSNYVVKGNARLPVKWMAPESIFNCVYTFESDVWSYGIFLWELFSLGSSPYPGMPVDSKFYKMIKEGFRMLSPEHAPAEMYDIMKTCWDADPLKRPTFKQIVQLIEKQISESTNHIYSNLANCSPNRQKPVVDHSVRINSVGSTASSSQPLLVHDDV

[11] = test system: ABL1 (human), P00519 [H396P]

Sequence of RET (human), P07949 [M918T] (P07949 whole entry M918T, looked up): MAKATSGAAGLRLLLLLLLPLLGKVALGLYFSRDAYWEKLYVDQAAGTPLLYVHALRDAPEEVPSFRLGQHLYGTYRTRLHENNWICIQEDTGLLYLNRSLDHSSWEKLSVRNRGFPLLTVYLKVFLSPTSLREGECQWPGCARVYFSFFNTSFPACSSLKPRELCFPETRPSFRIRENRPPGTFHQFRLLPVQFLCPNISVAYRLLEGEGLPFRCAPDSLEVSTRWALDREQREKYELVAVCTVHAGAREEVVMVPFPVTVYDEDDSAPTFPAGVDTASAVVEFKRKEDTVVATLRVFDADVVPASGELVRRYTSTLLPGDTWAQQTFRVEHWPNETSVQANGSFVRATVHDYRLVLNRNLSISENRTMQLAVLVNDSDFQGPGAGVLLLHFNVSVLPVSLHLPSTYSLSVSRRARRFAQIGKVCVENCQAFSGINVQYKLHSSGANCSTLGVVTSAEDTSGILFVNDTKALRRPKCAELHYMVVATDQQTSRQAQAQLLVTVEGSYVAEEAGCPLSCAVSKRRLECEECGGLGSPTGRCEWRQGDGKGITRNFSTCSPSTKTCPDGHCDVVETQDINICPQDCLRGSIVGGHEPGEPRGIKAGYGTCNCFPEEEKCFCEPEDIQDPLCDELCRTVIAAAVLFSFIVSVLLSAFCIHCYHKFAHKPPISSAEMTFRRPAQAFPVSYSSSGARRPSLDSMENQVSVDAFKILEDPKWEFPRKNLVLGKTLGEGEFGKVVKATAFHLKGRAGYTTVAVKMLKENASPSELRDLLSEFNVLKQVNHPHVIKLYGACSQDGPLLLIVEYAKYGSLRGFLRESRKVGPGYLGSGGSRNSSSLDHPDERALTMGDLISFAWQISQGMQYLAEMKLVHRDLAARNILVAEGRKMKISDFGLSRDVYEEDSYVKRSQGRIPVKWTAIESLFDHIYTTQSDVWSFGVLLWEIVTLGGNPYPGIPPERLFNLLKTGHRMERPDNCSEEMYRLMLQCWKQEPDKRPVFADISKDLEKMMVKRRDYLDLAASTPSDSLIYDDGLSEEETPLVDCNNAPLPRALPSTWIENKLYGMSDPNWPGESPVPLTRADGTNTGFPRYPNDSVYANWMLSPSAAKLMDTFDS
Sequence of KIT (human), P10721 [V559D/V654A] (P10721 whole entry V559D/V654A, looked up): as the sequence (P10721 whole entry L576P, looked up) above, with V559D, P576L, V654A counted along it
Sequence of RET (human), P07949 [V804M] (P07949 whole entry V804M, looked up): as the sequence (P07949 whole entry M918T, looked up) above, with V804M, T918M counted along it

| Compound | kinase still bound, per cent of control [1] | kinase still bound, per cent of control [2] | kinase still bound, per cent of control [3] | kinase still bound, per cent of control [4] | kinase still bound, per cent of control [5] | kinase still bound, per cent of control [6] | kinase still bound, per cent of control [7] | kinase still bound, per cent of control [8] | kinase still bound, per cent of control [9] | kinase still bound, per cent of control [10] | kinase still bound, per cent of control [11] |
| --- | --- | --- | --- | --- | --- | --- | --- | --- | --- | --- | --- |
| CCOc1cc(N2CCC(O)CC2)ccc1Nc1ncc2c(n1)N(C)c1ccccc1C(=O)N2C | 100% | 100% | 100% | 100% | 100% | 100% | 100% | 100% | 100% | 100% | 100% |
| Cn1c(=O)n(-c2ccc(C(C)(C)C#N)cc2)c2c3cc(-c4cnc5ccccc5c4)ccc3ncc21 | 100% | 100% | 100% | 100% | 100% | 100% | – | 100% | 21% | 100% | 100% |
| COc1cc(C(=O)NC2CCN(C)CC2)ccc1Nc1ncc2c(n1)N(C1CCCC1)CCC(=O)N2C(C)C | 100% | 100% | 100% | 100% | 0% | 100% | 100% | 100% | 100% | 100% | 100% |
| Cc1cn(-c2cc(C(=O)Nc3ccc(C)c(NC(=O)c4ccno4)c3)cc(C(F)(F)F)c2)cn1 | 7.4% | 100% | 100% | 5.4% | 100% | 100% | 100% | 100% | 100% | 0% | 16% |
| CCc1nc(-c2cccc(C)c2)c(-c2ccnc(NC(=O)c3ccccc3)c2)s1 | 26% | 94% | – | – | 72% | – | – | – | – | 51% | 3% |
| OCCCNc1cc(-c2ccnc(Nc3cccc(Cl)c3)n2)ccn1 | 100% | 100% | 100% | 100% | 100% | 100% | 100% | 100% | 100% | 100% | 100% |
| COc1cc(N2CCC(C(N)=O)CC2)ccc1Nc1nc(N)c(Cl)c(Nc2ccccc2S(=O)(=O)C(C)C)n1 | 100% | 100% | 0.75% | 100% | 100% | 1.2% | – | – | 11% | – | 100% |
| COc1cc(C(=O)NC2CCN(C)CC2)ccc1Nc1ncc2c(n1)N(C1CCCC1)C(C)CC(=O)N2C (stereo not given) | 100% | 100% | 100% | 100% | 100% | 100% | – | – | 100% | – | 100% |
